LC50, ID-50 morph. and IC-50 eclos. data for five molecules are collected here from patent US4002615A, “Terpenoid compounds of substituted hydroxyalkyl-pyridines having juvenile hormone activity” (A/S Cheminova, priority 1974, dated 1977).

Type in all cases: in vivo
One assay has as its system Culex pipiens L. The assay can be described thus: Culex test (mature larvae, loss of 50% of test animals). To be noted: concentration producing loss of 50% of test animals, mixtures of isomers, read-out: IC-50 eclos. The procedure: (§1) The biological tests are examplified by tests on Tenebrio molitor L, Galleria mellonella L. and Culex pipiens L.
The compounds are tested on mature larvae. The concentration (IC-50 eclos.) is given in ppm.

A further assay relates to Tenebrio molitor L. The assay can be described thus: Tenebrio test (topical application to pupae, inhibition of adult characters). To be noted: topical in acetone to abdomen of 0.5 to 2 hours old pupae; 27° C, 70% RH; mixtures of isomers. On the procedure:
as §1
The material in question is applied topically to the abdomen of 0.5 to 2 hours old pupae of the said species, as a solution in acetone. The pupae are held at 27° C and 70% RH, ecdysis occuring 5 to 7 days later. The degree of inhibition of adult characters is referred to an arbitrary scale, where a morphologically perfect adult is given the character 0%, and a perfect second pupae 100%.

The next assay deals with Galleria mellonella L. The assay can be described thus: Galleria test (eggs on impregnated filter paper, prevention of eclosion). To be noted: amount preventing eclosion of 50% of the eggs, mixtures of isomers. On the procedure:
as §1
The test is performed on eggs deposited on impregnated filter paper by the mother moth. The data given in table 2, are the amount necessary for preventing eclosion of 50% of the eggs. The amount (IC-50 eclos.) is given in mg./65 cm^2.

In brackets after ≈: the same amount, converted by molar mass. A value given as a limit tells only on which side of the number the result lay.

For the molecule `CC(C)=CCCC(C)=CCOCc1ccccn1` [Compound 1, 3,7-dimethyl-2,6-octadien-1-yl-(2-pyridyl)methylether], the LC50 with Culex pipiens L. came out at 5 µg/mL (≈ 20.4 µM).

Turning to `CC(C)=CCCC(C)=CCOCc1ccncc1` [Compound 3, 3,7-dimethyl-2,6-octadien-1-yl-(4-pyridyl)methylether], the LC50 in the assay with Culex pipiens L. is above 10 µg/mL.

With `CC(=CCOCc1ccccn1)CCC1OC1(C)C` (stereo not shown) [Compound 4, 6,7-epoxy-3,7-dimethyl-2-octen-1-yl-(2-pyridyl)methylether], the LC50 in the assay on Culex pipiens L. was determined as 9 µg/mL (≈ 34.4 µM).

For the molecule `CCc1ccc(COCC=C(C)CCC2OC2(C)C)nc1` (stereo not shown) [Compound 6, 6,7-epoxy-3,7-dimethyl-2-octen-1-yl-(5-ethyl-2-pyridyl)methylether], in the assay on Culex pipiens L., the LC50 turned out to be 0.005 µg/mL (≈ 0.0173 µM).

Take `CC(C)=CCCC(C)=CCOCc1cccc(C)n1` [Compound 8, 3,7-dimethyl-2,6-octadien-1-yl-(6-methyl-2-pyridyl)methylether]: the ID-50 morph. in the assay on Tenebrio molitor L was found to be 4 μg/pupa. Besides, the IC-50 eclos. in the assay on Galleria mellonella L. is given as above 10 mg/65 cm^2. Besides, the LC50 in the assay with Culex pipiens L. turned out to be 10 µg/mL (≈ 38.6 µM).
